# Source: patent US5935945A, “Methods of treating or preventing cardiac arrhythmia” (Merck & Co., Inc., priority 1997, dated 1999)
# Legend:
# [1] = target: T1, IKur (ultra-rapidly-activating delayed rectifier K^+ current) (Homo sapiens, UniProt P22460); experiment: Voltage-clamp measurement of IKur in isolated human atrial myocytes; type: cell-based; settings: rested state block, first pulse; 150 ms pulses to +40 mV from -50 mV; room temperature (22-24° C); read-out: Rested State IC50, IKur in Human Atrium
# T1 construct: isolated human atrial myocytes; from tissue; host or cells: isolated myocytes from human right atrial appendage
# T1 sequence (P22460 whole entry): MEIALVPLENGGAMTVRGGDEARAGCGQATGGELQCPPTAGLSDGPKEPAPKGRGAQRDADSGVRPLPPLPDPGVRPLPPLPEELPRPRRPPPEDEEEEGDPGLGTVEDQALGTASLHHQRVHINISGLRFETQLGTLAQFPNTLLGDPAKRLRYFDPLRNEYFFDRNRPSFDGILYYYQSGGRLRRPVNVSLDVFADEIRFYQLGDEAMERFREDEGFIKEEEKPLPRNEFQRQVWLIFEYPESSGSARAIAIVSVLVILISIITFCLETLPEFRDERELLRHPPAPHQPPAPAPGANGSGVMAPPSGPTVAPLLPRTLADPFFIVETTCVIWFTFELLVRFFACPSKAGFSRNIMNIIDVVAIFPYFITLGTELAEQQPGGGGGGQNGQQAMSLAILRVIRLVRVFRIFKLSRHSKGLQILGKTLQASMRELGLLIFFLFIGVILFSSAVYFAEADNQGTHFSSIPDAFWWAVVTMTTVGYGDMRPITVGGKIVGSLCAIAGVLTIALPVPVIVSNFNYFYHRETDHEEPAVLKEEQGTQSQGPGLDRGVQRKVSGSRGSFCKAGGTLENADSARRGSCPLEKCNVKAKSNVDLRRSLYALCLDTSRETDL
# Procedure: J. Physiol. […] All tissues were collected in accordance with Temple University School of Medicine Institutional guidelines. […] Tissue samples were quickly immersed in cold (0-4° C.) cardioplegia solution containing (in mM/L): 50 KH2 PO4, 8 MgSO4, 10 NaHCO3, 5 adenosine, 25 taurine, 140 glucose, and 100 mannitol, pH 7.4 and bubbled with 100% O2. […] The tissue was gently agitated by continuous bubbling with 100% O2 for 5 min. […] The supernatant was removed after 40 min and discarded. The chunks were then incubated in a solution of the same ionic composition but supplemented with only collagenase and […] CaCl2. Microscopic examination of the medium was performed every 10-20 min to determine the number and quality of isolated cells. […] The supernatant was collected in a 50 ml centrifuge tube. […] Cells were used within 2-24 hr after isolation.
# A small aliquot of the solution containing the isolated human atrial myocytes was placed in a 1-ml chamber mounted on the stage of an inverted microscope. Five minutes were allowed for cell adhesion to the bottom of the chamber. To record IKur, human atrial myocytes were superfused with a solution of the same ionic composition as that used for Kv1.5. An alternative external solution was sometimes used in which NaCl was replaced with NMDG (formal name: N-methyl-d-glucamine) to inhibit INa.
# The amplitude of IKur was measured as the amplitude of the time-dependentcurrent at the end of the test pulse, relative to the holding current level. […] All experiments were performed at room temperature (22-24° C.).
# hKv1.5 = target: T2, hKv1.5 (Homo sapiens, UniProt P22460); experiment: Voltage-clamp measurement of hKv1.5 current expressed in Chinese hamster ovary (CHO) cells; type: cell-based; settings: rested state block, first pulse; 150 ms pulses to +40 mV from -80 mV; room temperature (22-24° C); read-out: Rested State IC50, CHO Cells Expressing hKv1.5
# T2 construct: expressed in transfected cells
# T2 sequence (P22460 whole entry): as above
# Procedure: Expression of Kv1.5 in CHO Cells
# CHOKI cells were plated at 2.7×10^4 cells/60 mm dish and incubated at 37° C., in a 5% CO2 environment for three days. Cells were then washed twice and covered with 3 ml of OptiMEM medium (Gibco). Plasmid/DOTAP solution (consisting of […] of Kv1.5 in pcDNAI/Neo and […] DOTAP transfection reagent (Boehringer Mannheim) in 1 ml of OptiMEM) was added dropwise to each plate while swirling. Plates were incubated overnight and the media then changed to 5 mls of F12 (Gibco) supplemented with 10% FBS (Sigma), 1,000 U/ml penicillin […] streptomycin (Gibco), and 2 mM glutamine (Gibco). After two more days, the cells were trypsinized and replated on 100 mm dishes in supplemented F12 media including 1 mg/ml G418 (Gibco). The medium was changed daily until nontransfected cells were killed. Cell lines were grown from individual clones and tested for expression of Kv1.5 using both the ^86 RB efflux assay and voltage clamp protocols. […] These cells were maintained in culture and on each experimental day were freshly isolated by mild trypsinization.
# The patch-clamp technique was used to record ionic currents in the whole-cell configuration. Patch pipettes were obtained using a two stage puller from square bore (1.0 mm o.d.) borosillicate capillary tubing. Pipettes were filled with the following solution (in mM/L): 110 K-Gluconate or K-Aspartate, 20 KCl, 5 MgATP, 5 EGTA, 5-10 HEPES, pH 7.2. […] Following seal formation, the membrane was ruptured by gentle suction to establish the whole-cell configuration, and negative pressure was maintained on the pipette using a 1 ml gas-tight syringe attached via air tight tubing to the suction port of the microelectrode holder.
# Kv1.5 currents were elicited by 150 ms depolarizing test pulses to +40 mV from a holding potential of -80 mV. The effects of test agents were assessed at steady-state. Data was analyzed as % block from control current amplitude. […] All experiments were performed at room temperature (22-24° C.). […]
IC50 [1],IC50 (hKv1.5),Compound
230 nM,230 nM,"COc1ccc(-n2nc(Sc3ccc(Cl)cc3)c(C)c(C#N)c2=O)cc1 [Compound A, 6-(4-Chlorophenylthio)-2-(4-methoxyphenyl)-5-methyl-3-oxo-2,3-dihydropyridazine-4-carbonitrile]"
80 nM,120 nM,COc1ccc(-n2nc(Sc3ccc(C)cc3)c(C)c(C#N)c2=O)cc1 [Compound B]

Compound,IC50 [1],IC50 (hKv1.5)
"Cc1cc(C)c(CP(=O)(c2ccccc2)c2ccccc2)c(-c2ccc(F)c(C)c2)c1 [Compound C, 2-(Diphenylphosphinylmethyl)-4'-fluoro-3,5,3'-trimethyl-biphenyl]",780 nM,278 nM
